# The source made the active and inactive calls. No cut-off for these calls is given here.
# Assays:
# [1] = biological target: T1, von Hippel-Lindau disease tumor suppressor/Dual specificity mitogen-activated protein kinase kinase 2 (Homo sapiens) (UniProt P36507+P40337); experiment: (§1) Protac activity against VHL/MEK2 in human UACC257 cells harboring BRAF V600E variant assessed as degradation of MEK2 after 24 hrs by Western blot analysis; type: cell-based
# [2] = biological target: von Hippel-Lindau disease tumor suppressor/Dual specificity mitogen-activated protein kinase kinase 2 (Homo sapiens, UniProt P36507+P40337, V600E); experiment: as §1; type: cell-based
# HT-29 [3] = experiment: Effect on total ERK protein expression in human HT-29 cells at 0.001 to 5 uM after 24 hrs by Western blot analysis; type: functional, cell-based
# COLO 205 = experiment: Effect on total ERK protein expression in human COLO205 cells at 0.001 to 5 uM after 24 hrs by Western blot analysis; type: functional, cell-based
# [4] = biological target: T2, von Hippel-Lindau disease tumor suppressor/Dual specificity mitogen-activated protein kinase kinase 1 (Homo sapiens) (UniProt Q02750+P40337); experiment: Protac activity against VHL/MEK1 in human HT-29 cells harboring with BRAF V600E variant assessed as degradation of MEK1 by measuring reduction in MEK1 protein level at 0.1 to 0.3 uM after 2 hrs by Western blot analysis; type: cell-based
# [5] = biological target: T1, von Hippel-Lindau disease tumor suppressor/Dual specificity mitogen-activated protein kinase kinase 2 (Homo sapiens); experiment: Protac activity against VHL/MEK2 in human HT-29 cells harboring with BRAF V600E variant assessed as degradation of MEK2 by measuring reduction in MEK2 protein level at 0.1 to 0.3 uM after 2 hrs by Western blot analysis; type: cell-based
# [6] = biological target: T1, von Hippel-Lindau disease tumor suppressor/Dual specificity mitogen-activated protein kinase kinase 2 (Homo sapiens); experiment: Protac activity against VHL/MEK2 in human HT-29 cells harboring with BRAF V600E variant assessed as degradation of MEK2 at 0.1 to 0.3 uM after 4 hrs by Western blot analysis; type: cell-based
# [7] = biological target: T3, von Hippel-Lindau disease tumor suppressor/Dual specificity mitogen-activated protein kinase kinase 2/Dual specificity mitogen-activated protein kinase kinase 1 (Homo sapiens) (UniProt P36507+Q02750+P40337); experiment: Protac activity against VHL/MEK1/2 in human SK-MEL-28 cells harboring with BRAF V600E variant assessed as reduction in phosphorylation of MEK at S218/222 residues at 0.1 to 0.3 after >= 2 hrs by Western blot analysis; type: cell-based
# [8] = biological target: T3, von Hippel-Lindau disease tumor suppressor/Dual specificity mitogen-activated protein kinase kinase 2/Dual specificity mitogen-activated protein kinase kinase 1 (Homo sapiens); experiment: Protac activity against VHL/MEK1/2 in human HT-29 cells harboring with BRAF V600E variant assessed as reduction in phosphorylation of ERK at T202/Y204 residues at 0.1 to 0.3 uM by Western blot analysis; type: cell-based; conditions: TDE = time-dependent effect
# [9] = biological target: T2, von Hippel-Lindau disease tumor suppressor/Dual specificity mitogen-activated protein kinase kinase 1 (Homo sapiens); experiment: Protac activity against VHL/MEK1 in human HT-29 cells harboring with BRAF V600E variant assessed as degradation of MEK1 at 0.3 uM after 3 to 144 hrs by Western blot analysis; type: cell-based
# [10] = biological target: T1, von Hippel-Lindau disease tumor suppressor/Dual specificity mitogen-activated protein kinase kinase 2 (Homo sapiens); experiment: (§2) Protac activity against VHL/MEK2 in human SK-MEL-28 cells harboring with BRAF V600E variant assessed as degradation of MEK2 by measuring MEK2 protein level at 0.3 uM pretreated with MEK1/2 inhibitor, PD0325901 for 2 hrs followed by incubation with compound for 10 hrs by Western blot analysis; type: cell-based
# [11] = biological target: T3, von Hippel-Lindau disease tumor suppressor/Dual specificity mitogen-activated protein kinase kinase 2/Dual specificity mitogen-activated protein kinase kinase 1 (Homo sapiens); experiment: Protac activity against VHL/MEK1/2 in human SK-MEL-28 cells harboring with BRAF V600E variant assessed as phosphorylation of MEK at S218/222 residues at 0.3 uM pretreated with MEK1/2 inhibitor, PD0325901 for 2 hrs followed by incubation with compound for 2 hrs by Western blot analysis; type: cell-based
# [12] = biological target: T2, von Hippel-Lindau disease tumor suppressor/Dual specificity mitogen-activated protein kinase kinase 1 (Homo sapiens); experiment: Protac activity against VHL/MEK1 in human SK-MEL-28 cells harboring with BRAF V600E variant assessed as degradation of MEK1 by measuring MEK1 protein level at 0.3 uM pretreated with VHL ligand, VH 032 for 2 hrs followed by incubation with compound for 10 hrs by Western blot analysis; type: cell-based
# [13] = biological target: T1, von Hippel-Lindau disease tumor suppressor/Dual specificity mitogen-activated protein kinase kinase 2 (Homo sapiens); experiment: Protac activity against VHL/MEK2 in human SK-MEL-28 cells harboring with BRAF V600E variant assessed as degradation of MEK2 by measuring MEK2 protein level at 0.3 uM pretreated with VHL ligand, VH 032 for 2 hrs followed by incubation with compound for 10 hrs by Western blot analysis; type: cell-based
# [14] = biological target: T3, von Hippel-Lindau disease tumor suppressor/Dual specificity mitogen-activated protein kinase kinase 2/Dual specificity mitogen-activated protein kinase kinase 1 (Homo sapiens); experiment: Protac activity against VHL/MEK1/2 in human SK-MEL-28 cells harboring with BRAF V600E variant assessed as in phosphorylation of MEK at S218/222 residues at 0.3 uM pretreated with VHL ligand, VH 032 for 2 hrs followed by incubation with compound for 10 hrs by Western blot analysis; type: cell-based
# [15] = biological target: T1, von Hippel-Lindau disease tumor suppressor/Dual specificity mitogen-activated protein kinase kinase 2 (Homo sapiens); experiment: Protac activity against VHL/MEK2 in human HT-29 cells harboring with BRAF V600E variant assessed as degradation of MEK2 by measuring MEK2 protein level at 0.3 uM pretreated with proteasome inhibitor, MG-132 for 2 hrs followed by incubation with compound for 10 hrs by Western blot analysis; type: cell-based
# [16] = biological target: T1, von Hippel-Lindau disease tumor suppressor/Dual specificity mitogen-activated protein kinase kinase 2 (Homo sapiens); experiment: as §2, with “NEDD8-activating enzyme” for “MEK1/2”, “MLN4924” for “PD0325901”; type: cell-based
# [17] = biological target: T3, von Hippel-Lindau disease tumor suppressor/Dual specificity mitogen-activated protein kinase kinase 2/Dual specificity mitogen-activated protein kinase kinase 1 (Homo sapiens); experiment: Protac activity against VHL/MEK1/2 in human HT-29 cells harboring with BRAF V600E variant assessed as phosphorylation of MEK at S218/222 residues at 0.3 uM pretreated with NEDD8-activating enzyme inhibitor, MLN4924 for 2 hrs followed by incubation with compound for 10 hrs by Western blot analysis; type: cell-based
# [18] = biological target: T3, von Hippel-Lindau disease tumor suppressor/Dual specificity mitogen-activated protein kinase kinase 2/Dual specificity mitogen-activated protein kinase kinase 1 (Homo sapiens); experiment: (§3) Protac activity against VHL/MEK1/2 in human HT-29 cells harboring with BRAF V600E variant assessed as phosphorylation of ERK at T202/Y204 residues at 0.3 uM pretreated with NEDD8-activating enzyme inhibitor, MLN4924 for 2 hrs followed by incubation with compound for 10 hrs by Western blot analysis; type: cell-based
# [19] = biological target: T3, von Hippel-Lindau disease tumor suppressor/Dual specificity mitogen-activated protein kinase kinase 2/Dual specificity mitogen-activated protein kinase kinase 1 (Homo sapiens); experiment: as §3, with “SK-MEL-28” for “HT-29”; type: cell-based
# [20] = biological target: T1, von Hippel-Lindau disease tumor suppressor/Dual specificity mitogen-activated protein kinase kinase 2 (Homo sapiens); experiment: Protac activity against VHL/MEK2 in human HT-29 cells harboring with BRAF V600E variant assessed as degradation of MEK2 by measuring reduction in MEK2 protein level at 0.1 uM after 10 hrs by LC-MS based Volcano plot analysis; type: cell-based
# [21] = biological target: T4, von Hippel-Lindau disease tumor suppressor/Cullin-9 (Homo sapiens) (UniProt P40337+Q8IWT3); experiment: Protac activity against VHL/cullin9 in human HT-29 cells harboring with BRAF V600E variant assessed as reduction in Cullin9 protein level at 0.1 uM after 10 hrs by LC-MS based Volcano plot analysis; type: cell-based
# [22] = biological target: T4, von Hippel-Lindau disease tumor suppressor/Cullin-9 (Homo sapiens); experiment: Protac activity against VHL/cullin9 in human HT-29 cells harboring with BRAF V600E variant assessed as cullin9 protein level at 0.1 uM after 10 hrs by Western blot analysis; type: cell-based
# UACC-257 = experiment: Antiproliferative activity against human UACC257 cells assessed as reduction in cell growth after 3 days by MTT assay; type: functional
# HT-29 [23] = experiment: Inhibition of colony formation in human HT-29 cells at 10 to 100 nM supplemented with fresh medium containing compound every 3 days for 14 days by crystal violet staining based assay; type: functional, cell-based
# [24] = Toxicity in Swiss albino mouse assessed as effect on adverse events at 50 mg/kg, ip; type: organism-based; conditions: in vivo
# T2 sequence (P40337 whole entry, looked up): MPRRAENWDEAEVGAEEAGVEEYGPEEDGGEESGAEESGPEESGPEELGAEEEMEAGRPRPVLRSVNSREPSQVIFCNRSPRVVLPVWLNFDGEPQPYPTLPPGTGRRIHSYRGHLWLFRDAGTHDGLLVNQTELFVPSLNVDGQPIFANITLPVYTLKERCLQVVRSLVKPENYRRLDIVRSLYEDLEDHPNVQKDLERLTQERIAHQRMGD
# T2 sequence (Q02750 whole entry, looked up): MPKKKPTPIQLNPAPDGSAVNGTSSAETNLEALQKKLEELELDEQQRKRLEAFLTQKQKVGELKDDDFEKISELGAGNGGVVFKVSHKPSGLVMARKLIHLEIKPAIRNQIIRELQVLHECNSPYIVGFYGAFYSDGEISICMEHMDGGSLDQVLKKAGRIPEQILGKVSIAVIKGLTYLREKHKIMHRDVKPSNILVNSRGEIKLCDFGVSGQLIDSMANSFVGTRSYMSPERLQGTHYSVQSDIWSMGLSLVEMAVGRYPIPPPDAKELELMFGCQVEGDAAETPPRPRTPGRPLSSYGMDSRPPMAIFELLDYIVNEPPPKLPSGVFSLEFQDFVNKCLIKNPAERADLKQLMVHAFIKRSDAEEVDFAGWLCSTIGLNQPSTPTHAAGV
# T3 sequence (P36507 whole entry, looked up): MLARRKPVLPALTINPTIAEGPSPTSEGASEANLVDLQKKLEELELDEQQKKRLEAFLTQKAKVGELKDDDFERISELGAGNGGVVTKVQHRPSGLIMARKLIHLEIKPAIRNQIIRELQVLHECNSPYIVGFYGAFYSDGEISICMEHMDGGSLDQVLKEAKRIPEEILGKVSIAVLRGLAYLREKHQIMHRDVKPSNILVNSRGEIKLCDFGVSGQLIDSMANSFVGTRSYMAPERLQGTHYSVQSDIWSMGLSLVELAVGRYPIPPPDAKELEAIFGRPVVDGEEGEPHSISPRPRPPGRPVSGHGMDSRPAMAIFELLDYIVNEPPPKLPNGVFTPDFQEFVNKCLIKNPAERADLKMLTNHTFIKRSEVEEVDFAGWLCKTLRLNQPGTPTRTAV
# T3 sequence (P40337 whole entry, looked up): as the sequence (P40337 whole entry, looked up) above
# T3 sequence (Q02750 whole entry, looked up): as the sequence (Q02750 whole entry, looked up) above
# T1 sequence (P36507 whole entry, looked up): as the sequence (P36507 whole entry, looked up) above
# T1 sequence (P40337 whole entry, looked up): as the sequence (P40337 whole entry, looked up) above
# T4 sequence (P40337 whole entry, looked up): as above
# T4 sequence (Q8IWT3 whole entry, looked up): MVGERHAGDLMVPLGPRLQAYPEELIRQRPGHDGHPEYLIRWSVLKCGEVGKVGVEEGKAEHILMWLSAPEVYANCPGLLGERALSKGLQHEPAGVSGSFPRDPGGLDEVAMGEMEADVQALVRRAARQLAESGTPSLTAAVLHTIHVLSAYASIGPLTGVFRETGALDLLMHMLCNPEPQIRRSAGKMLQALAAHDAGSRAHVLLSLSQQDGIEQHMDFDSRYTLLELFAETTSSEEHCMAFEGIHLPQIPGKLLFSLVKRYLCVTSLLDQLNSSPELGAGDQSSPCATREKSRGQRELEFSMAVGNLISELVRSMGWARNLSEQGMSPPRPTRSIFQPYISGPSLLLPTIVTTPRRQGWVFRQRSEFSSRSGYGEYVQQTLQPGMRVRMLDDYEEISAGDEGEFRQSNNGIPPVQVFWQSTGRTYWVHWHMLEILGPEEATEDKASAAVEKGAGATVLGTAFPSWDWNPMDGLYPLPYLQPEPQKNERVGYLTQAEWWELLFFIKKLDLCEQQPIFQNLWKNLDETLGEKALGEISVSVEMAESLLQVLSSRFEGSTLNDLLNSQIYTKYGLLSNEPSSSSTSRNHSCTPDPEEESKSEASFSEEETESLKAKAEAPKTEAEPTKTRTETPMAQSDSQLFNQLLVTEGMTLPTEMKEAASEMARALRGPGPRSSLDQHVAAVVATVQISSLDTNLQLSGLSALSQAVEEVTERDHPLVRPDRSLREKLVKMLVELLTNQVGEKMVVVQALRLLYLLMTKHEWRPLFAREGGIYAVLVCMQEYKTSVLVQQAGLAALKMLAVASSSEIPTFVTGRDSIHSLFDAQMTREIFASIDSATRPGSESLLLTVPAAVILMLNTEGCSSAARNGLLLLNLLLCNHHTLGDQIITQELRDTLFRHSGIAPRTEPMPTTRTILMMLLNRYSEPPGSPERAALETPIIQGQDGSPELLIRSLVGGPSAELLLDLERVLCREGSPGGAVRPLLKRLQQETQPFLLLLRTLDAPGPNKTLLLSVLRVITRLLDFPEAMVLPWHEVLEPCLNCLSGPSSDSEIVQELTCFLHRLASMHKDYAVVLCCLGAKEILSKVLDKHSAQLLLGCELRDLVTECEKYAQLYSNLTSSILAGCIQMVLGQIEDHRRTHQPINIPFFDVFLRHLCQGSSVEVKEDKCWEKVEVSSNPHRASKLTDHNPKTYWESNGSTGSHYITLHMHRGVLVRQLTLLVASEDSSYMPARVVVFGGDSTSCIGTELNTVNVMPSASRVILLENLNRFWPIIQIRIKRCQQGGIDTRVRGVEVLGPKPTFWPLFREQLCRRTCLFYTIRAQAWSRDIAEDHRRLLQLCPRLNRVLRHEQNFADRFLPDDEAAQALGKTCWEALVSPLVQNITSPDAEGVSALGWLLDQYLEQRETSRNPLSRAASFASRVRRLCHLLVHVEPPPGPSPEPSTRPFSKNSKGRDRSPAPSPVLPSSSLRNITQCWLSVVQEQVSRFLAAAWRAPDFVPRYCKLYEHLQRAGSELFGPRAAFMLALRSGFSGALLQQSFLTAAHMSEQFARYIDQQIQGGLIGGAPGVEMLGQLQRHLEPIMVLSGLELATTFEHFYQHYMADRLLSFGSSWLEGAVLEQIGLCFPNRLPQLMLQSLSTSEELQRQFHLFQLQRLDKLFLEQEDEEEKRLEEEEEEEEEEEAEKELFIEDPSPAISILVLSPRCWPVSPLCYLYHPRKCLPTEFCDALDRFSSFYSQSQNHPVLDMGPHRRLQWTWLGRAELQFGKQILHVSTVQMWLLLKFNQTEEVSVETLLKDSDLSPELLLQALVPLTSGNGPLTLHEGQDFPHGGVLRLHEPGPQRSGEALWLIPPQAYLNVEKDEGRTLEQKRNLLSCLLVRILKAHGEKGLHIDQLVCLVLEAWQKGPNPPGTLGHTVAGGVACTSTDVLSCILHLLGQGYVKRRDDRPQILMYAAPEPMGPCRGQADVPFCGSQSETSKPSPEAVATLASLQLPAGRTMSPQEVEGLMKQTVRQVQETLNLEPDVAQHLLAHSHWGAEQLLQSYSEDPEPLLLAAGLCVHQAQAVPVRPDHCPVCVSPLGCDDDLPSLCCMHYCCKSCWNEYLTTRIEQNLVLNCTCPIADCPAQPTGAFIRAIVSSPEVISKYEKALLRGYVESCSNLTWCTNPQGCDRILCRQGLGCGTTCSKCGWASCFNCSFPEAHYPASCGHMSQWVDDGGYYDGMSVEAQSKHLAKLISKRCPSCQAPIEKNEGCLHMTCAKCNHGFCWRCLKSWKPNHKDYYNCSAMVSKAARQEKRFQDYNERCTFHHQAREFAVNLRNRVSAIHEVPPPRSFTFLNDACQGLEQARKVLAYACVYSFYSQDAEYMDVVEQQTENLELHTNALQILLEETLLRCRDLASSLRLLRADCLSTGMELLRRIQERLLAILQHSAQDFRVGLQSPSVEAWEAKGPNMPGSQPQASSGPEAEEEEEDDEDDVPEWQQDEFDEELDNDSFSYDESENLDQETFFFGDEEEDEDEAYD
# Chain of von Hippel-Lindau disease tumor suppressor/Dual specificity mitogen-activated protein kinase kinase 2 (P36507 whole entry, looked up, stated change not applied): as the sequence (P36507 whole entry, looked up) above
# Chain of von Hippel-Lindau disease tumor suppressor/Dual specificity mitogen-activated protein kinase kinase 2 (P40337 whole entry, looked up, stated change not applied): as the sequence (P40337 whole entry, looked up) above
smiles,measurement,setting,value
Cc1ncsc1-c1ccc([C@H](C)NC(=O)[C@@H]2C[C@@H](O)CN2C(=O)[C@@H](NC(=O)CCCCCCCCCCNCCCONC(=O)c2ccc(F)c(F)c2Nc2ccc(I)cc2F)C(C)(C)C)cc1,Activity,[1],Dose-dependent effect
same,DC50,[2],27 nM
same,Activity,HT-29 [3],inactive
same,Activity,COLO 205,inactive
same,Activity,[4],Active
same,Activity,[5],Active
same,Activity,[6],Active
same,Activity,[7],Active
same,Activity,[8],Tde
same,Activity,[9],Active
same,Activity,[10],inactive
same,Activity,[11],inactive
same,Activity,[12],inactive
same,Activity,[13],inactive
same,Activity,[14],inactive
same,Activity,[15],inactive
same,Activity,[16],inactive
same,Activity,[17],inactive
same,Activity,[18],inactive
same,Activity,[19],inactive
same,Activity,[20],Active
same,Activity,[21],Active
same,Activity,[22],inactive
same,growth inhibition (GI),UACC-257,Dose-dependent effect
same,GI50,"UACC-257; UACC-257, 72 h",30 to 200 nM
same,inhibition,HT-29 [23],Active
same,Activity,[24],Non-Toxic

# — ChEMBL document CHEMBL4321854, “Discovery of a First-in-Class Mitogen-Activated Protein Kinase Kinase 1/2 Degrader” (J Med Chem, 2019)
